Results as given in publication PMC6857051, “Proliferative regulation of alveolar epithelial type 2 progenitor cells by human Scnn1d gene” (Theranostics, 2019).
Like-named read-outs stand apart in the source and are kept apart here.

Target: T1, human δ802βγ ENaC (Homo sapiens, UniProt P51168+P51170+P51172)
T1 construct: Bioelectric features of full-length human δ802 epithelial sodium channels (ENaC) in Xenopus oocytes; expressed in transfected cells; host or cells: Xenopus laevis oocytes injected with cRNA (pGEM HE vector)
T1 sequence (P51172 1-802): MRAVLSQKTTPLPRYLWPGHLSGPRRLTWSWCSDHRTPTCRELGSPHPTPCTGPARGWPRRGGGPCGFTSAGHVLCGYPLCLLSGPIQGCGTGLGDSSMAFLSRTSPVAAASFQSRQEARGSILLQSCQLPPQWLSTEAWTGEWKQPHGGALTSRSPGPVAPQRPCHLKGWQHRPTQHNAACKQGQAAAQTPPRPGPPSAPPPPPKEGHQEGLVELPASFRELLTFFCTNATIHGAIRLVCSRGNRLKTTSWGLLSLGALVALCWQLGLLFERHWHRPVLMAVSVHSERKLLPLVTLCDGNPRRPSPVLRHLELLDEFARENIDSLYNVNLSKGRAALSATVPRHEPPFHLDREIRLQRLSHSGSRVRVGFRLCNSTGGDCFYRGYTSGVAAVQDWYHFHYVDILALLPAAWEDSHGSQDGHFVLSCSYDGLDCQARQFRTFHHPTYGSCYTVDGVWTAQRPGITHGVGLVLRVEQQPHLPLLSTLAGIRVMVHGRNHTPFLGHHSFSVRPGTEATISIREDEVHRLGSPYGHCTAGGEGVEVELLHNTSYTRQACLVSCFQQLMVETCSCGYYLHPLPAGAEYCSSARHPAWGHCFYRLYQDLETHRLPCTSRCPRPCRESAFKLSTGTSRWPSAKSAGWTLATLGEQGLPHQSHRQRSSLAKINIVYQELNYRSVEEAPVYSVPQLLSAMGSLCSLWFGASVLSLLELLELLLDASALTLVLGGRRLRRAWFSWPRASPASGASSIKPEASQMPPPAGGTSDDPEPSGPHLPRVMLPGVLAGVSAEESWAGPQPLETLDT
T1 sequence (P51168 1-640): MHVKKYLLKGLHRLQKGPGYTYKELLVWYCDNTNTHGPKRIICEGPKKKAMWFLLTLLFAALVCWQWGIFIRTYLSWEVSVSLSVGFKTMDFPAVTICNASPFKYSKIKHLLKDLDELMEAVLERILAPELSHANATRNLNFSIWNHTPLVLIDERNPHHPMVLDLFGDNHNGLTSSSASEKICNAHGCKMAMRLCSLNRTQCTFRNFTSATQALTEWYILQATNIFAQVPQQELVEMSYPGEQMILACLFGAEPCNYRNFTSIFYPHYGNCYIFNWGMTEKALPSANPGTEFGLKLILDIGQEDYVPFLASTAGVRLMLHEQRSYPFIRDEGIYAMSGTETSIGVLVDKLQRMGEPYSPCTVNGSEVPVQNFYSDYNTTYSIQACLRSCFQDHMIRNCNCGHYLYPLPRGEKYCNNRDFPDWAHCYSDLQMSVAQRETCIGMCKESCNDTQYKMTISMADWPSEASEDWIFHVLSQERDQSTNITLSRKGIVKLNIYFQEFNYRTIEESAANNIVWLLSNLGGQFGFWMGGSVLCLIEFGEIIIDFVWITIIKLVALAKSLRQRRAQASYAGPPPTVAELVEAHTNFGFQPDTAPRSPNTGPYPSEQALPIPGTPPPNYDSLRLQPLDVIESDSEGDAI
T1 sequence (P51170 1-649): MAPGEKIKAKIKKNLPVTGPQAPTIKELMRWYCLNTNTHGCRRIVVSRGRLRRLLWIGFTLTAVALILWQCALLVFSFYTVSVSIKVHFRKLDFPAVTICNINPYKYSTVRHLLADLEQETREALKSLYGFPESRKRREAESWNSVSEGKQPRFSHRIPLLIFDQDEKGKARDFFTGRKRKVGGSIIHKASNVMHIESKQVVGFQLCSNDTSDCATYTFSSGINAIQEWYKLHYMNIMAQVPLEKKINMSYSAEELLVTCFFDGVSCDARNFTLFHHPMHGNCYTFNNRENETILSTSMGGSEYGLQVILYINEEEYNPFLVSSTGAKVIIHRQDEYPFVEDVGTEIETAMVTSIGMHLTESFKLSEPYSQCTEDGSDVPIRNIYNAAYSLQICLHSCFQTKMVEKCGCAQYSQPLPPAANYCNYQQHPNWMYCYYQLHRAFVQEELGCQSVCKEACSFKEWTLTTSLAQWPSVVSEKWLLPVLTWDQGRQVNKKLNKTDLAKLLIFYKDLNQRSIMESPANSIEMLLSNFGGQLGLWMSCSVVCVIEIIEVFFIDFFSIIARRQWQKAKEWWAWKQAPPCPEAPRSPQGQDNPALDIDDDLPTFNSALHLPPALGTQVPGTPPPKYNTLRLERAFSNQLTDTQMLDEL
Test: Two-electrode voltage clamp of δ802βγ-ENaC expressed in Xenopus oocytes
Type: cell-based
Procedure: Cloning, in vitro transcription, and heterologous expression of δ802 ENaC and two-electrode voltage clamping assay. δ802 and other ENaC subunits were generated in human ENaC cDNAs cloned into a pGEM HE vector [4], [76]. cRNAs of human α, β, and γ ENaC were prepared as described previously. The stoichiometry of native ENaC complexes is unclear to date. Based on the studies in the last decade, several models have been proposed for αβγ ENaC channels: 1α1β1γ, 2α1β1γ, 3α3β3γ. Based on the EM structure of human αβγ ENaC [35], the currently acceptable model of human αβγ ENaC complexes is heterotrimeric (1α1β1γ). Thus we microinjected δ802:β:γ in a 1:1:1 subunit ratio. Oocytes were surgically removed from appropriately anesthetized adult female Xenopus laevis (Xenopus Express). Briefly, the ovarian tissue was removed from the frog under anesthesia by tricaine-S (Western Chemicals) through a small incision in the lower abdomen. Ovarian lobes were removed and digested in OR-2 calcium-free medium (in mM: 82.5 NaCl, 2.5 KCl, 1.0 MgCl2, 1.0 Na2HPO4, and 10.0 HEPES, pH 7.5) with the addition of 2 mg/ml collagenase (Roche, Indianapolis). Defolliculated oocytes were injected with ENaC cRNAs into the cytosol (25 ng per oocyte in 50 nl of RNase-free water) and incubated in regular OR-2 medium at 18°C. The two-electrode voltage-clamp technique was used to record whole-cell currents 48 h post injection. Oocytes were impaled with two electrodes filled with 3M KCl, having resistance of 0.5 - 2 MΩ. A TEV-200A voltage-clamp amplifier (Dagan) was used to clamp oocytes with concomitant recording of currents. Two reference electrodes were connected to the bath. The continuously perfused bathing solution was ND-96 medium (in mM: 96.0 NaCl, 1.0 MgCl2, 1.8 CaCl2, 2.5 KCl, and 5.0 HEPES, pH 7.5). Whole-cell currents were recorded as previously reported. Experiments were controlled by pCLAMP 10.7 software (Molecular Devices), and currents at -40 mV, -100 mV, and +80 mV were continuously monitored with data recorded at intervals of 10 sec. Data were sampled at the rate of 200 Hz and filtered at 50 Hz.

In the case of `N=C(N)NC(=O)c1nc(Cl)c(N)nc1N` [amiloride], the IC50 (accumulating doses perfused to oocytes expressing δ802βγ-ENaC, n=17, mean ± s.e.m., SEM, read-out: IC50 value, dose-response curve fitted with the Hill equation) is reported as 1690 ± 300 nM.

In the case of Ac-LRGTLPHPLQRLR-NH2 [α-13 peptide], the “effect on δ802βγ-ENaC activity” value (300 μM, -100 mV, n=5) is reported as “slightly elevated” and the IC50 (oocytes, current at -100 mV, n=3, Chi^2 = 0.77, R^2 = 0.86, legend prints δ802βγ, read-out: IC50, dotted line (for δ802βγ) (Hill equation)) is reported as 40 ± 70 nM.

B1: plasmin: serine protease of the plasmin(ogen) signal pathway for fibrinolysis (protein, UniProt P00747 20-580; P00747 581-810, looked up)
Plasmin heavy chain A: EPLDDYVNTQGASLFSVTKKQLGAGSIEECAAKCEEDEEFTCRAFQYHSKEQQCVIMAENRKSSIIIRMRDVVLFEKKVYLSECKTGNGKNYRGTMSKTKNGITCQKWSSTSPHRPRFSPATHPSEGLEENYCRNPDNDPQGPWCYTTDPEKRYDYCDILECEEECMHCSGENYDGKISKTMSGLECQAWDSQSPHAHGYIPSKFPNKNLKKNYCRNPDRELRPWCFTTDPNKRWELCDIPRCTTPPPSSGPTYQCLKGTGENYRGNVAVTVSGHTCQHWSAQTPHTHNRTPENFPCKNLDENYCRNPDGKRAPWCHTTNSQVRWEYCKIPSCDSSPVSTEQLAPTAPPELTPVVQDCYHGDGQSYRGTSSTTTTGKKCQSWSSMTPHRHQKTPENYPNAGLTMNYCRNPDADKGPWCFTTDPSVRWEYCNLKKCSGTEASVVAPPPVVLLPDVETPSEEDCMFGNGKGYRGKRATTVTGTPCQDWAAQEPHRHSIFTPETNPRAGLEKNYCRNPDGDVGGPWCYTTNPRKLYDYCDVPQCAAPSFDCGKPQVEPKKCPGR
Plasmin light chain B: VVGGCVAHPHSWPWQVSLRTRFGMHFCGGTLISPEWVLTAAHCLEKSPRPSSYKVILGAHQEVNLEPHVQEIEVSRLFLEPTRKDIALLKLSSPAVITDKVIPACLPSPNYVVADRTECFITGWGETQGTFGAGLLKEAQLPVIENKVCNRYEFLNGRVQSTELCAGHLAGGTDSCQGDSGGPLVCFEKDKYILQGVTSWGLGCARPNKPGVYVRVSRFVTWIEGVMRNN
modifications: Plasmin
notes: serine protease of the plasmin(ogen) signal pathway for fibrinolysis
For B1, the “effect of serine protease incubation on δ802βγ activity” value (oocytes, -100 mV, tc-uPA 10 μg/ml, time course in minutes) was “activated the δ802βγ activity in minutes”.
